These are literature values, as cited in article PMC6154651 (Molecules : A Journal of Synthetic Chemistry and Natural …, 2017).

Structures are written as SMILES.

Series [1] relates to FXR. Conditions: HepG2 cells.
Series [2] concerns FXR-LBD (ligand binding domain).
A further series deals with obstructive cholestasis. Conditions: bile duct-ligated mice.
For another series, the system named is LCA-induced cholestasis. Conditions: mice, low dose 20 mg/kg.
Series [3] relates to FXR. Further details: method as in PMID 16626693.

For `CC1(C)CC[C@]2(C(=O)O)CC[C@]3(C)C(=CC[C@@H]4[C@@]5(C)CC[C@H](O)C(C)(C)[C@@H]5CC[C@]43C)[C@@H]2C1` [Compound 1, oleanolic acid], in the series with FXR [1] (25 μM), the “CDCA induction of bile salt export protein (BSEP)” value is reported as “partially blocked” and the “expression of organic solute transporter (OST-β)” value is recorded as “did not affect”. In the series on FXR [1], the “expression levels of cholesterol 7α-hydroxylase (CYP7A1)” value is recorded as “suppressed” and the “expression of short heterodimer partner (SHP)” value is reported as “slightly enhanced”. Also, in series [2], the “activity of FXR-LBD induced by CDCA” value is given as “dose-dependently suppressed”. Besides, the “effect on obstructive cholestasis” value in the series with obstructive cholestasis is given as “attenuate obstructive cholestasis”. The “protection against LCA-induced cholestasis” value in the series with LCA-induced cholestasis is “could protect”.
In the case of `CC1(C)CCC2(C(=O)O)CCC3(C)C(=CCC4C5(C)CCC(OC(=O)c6ccccc6C(=O)O)C(C)(C)C5CCC43C)C2C1` (stereo not drawn) [NPLC441, 3-β-(2-carboxybenzoyloxy)-oleanolic acid], in the series with retinoid X receptor-LBD, the “binding to retinoid X receptor-LBD” value is listed as “bound strongly”.
On to `C[C@@H]1O[C@@H](O[C@H]2[C@H](OC(=O)[C@]34CCC(C)(C)C[C@H]3C3=CC[C@@H]5[C@@]6(C)C[C@H](O)[C@H](O[C@@H]7O[C@H](CO)[C@@H](O)[C@H](O)[C@H]7O)C(CO)(CO)[C@@H]6CC[C@@]5(C)[C@]3(C)C[C@H]4O)OC[C@H](O)[C@@H]2O)[C@H](O)[C@H](O)[C@H]1O[C@@H]1OC[C@@H](O)[C@H](O[C@@H]2OC[C@](O)(CO)[C@H]2O)[C@H]1O` [platycodin D], for which the “activity on FXR” value with FXR [3] is reported as “weak activity”.
